Values of other authors as cited in patent US20120128764A1, “CONTROLLED-RELEASE COMPOSITIONS COMPRISING A PROTON PUMP INHIBITOR” (Aptalis Pharmatech, Inc., priority 2009, published 2012).

Tests used:
[1] = not given; remark: listed apart in the source

| solubility in phosphate buffer (phosphate buffer at pH 7.4) | solubility in water (water) | mean Tmax ([1]; after oral administration) | half-life (t1/2) ([1]; elimination) [h] | accumulation upon multiple dosing ([1]; multiple dosing) | dose proportionality of Cmax and AUC ([1]; over 10 mg to 80 mg doses) | SMILES |
| --- | --- | --- | --- | --- | --- | --- |
| very slightly soluble | freely soluble | – | – | – | – | COc1ccnc(C[S+]([O-])c2nc3ccc(OC(F)F)cc3[nH]2)c1OC (stereo not drawn) [Pantoprazole sodium sesquihydrate] |
| – | – | approximately 90 minutes | 1.8 | does not accumulate | dose proportional | COc1ccnc(C[S+]([O-])c2nc3ccc(OC(F)F)cc3[nH]2)c1OC (stereo not drawn) [Pantoprazole, 5-(difluoromethoxy)-2-[(3,4-dimethoxypyridin-2-yl)methylsulfinyl]-3H-benzoimidazole] |
